Source: US5962291A, “Metal dependent catalytic antibodies and method for producing the same” (The Regents of the University of Colorado, priority 1997, dated 1999)

Key:
Assay type in all cases: biochemical, mice
[1] = test system: monoclonal antibody 6A1A6 (metal dependent catalytic antibody, IgG); assay: Hydrolysis of 14C-labeled ATP, ADP and AMP by antibody 6A1A6, silica TLC analysis; settings: for Km / Vmax: 37° C., 0.5 mM EDTA, 1 mM MgCl2, 40 mM CHES, pH 9.0, 1.9 μM antibody
Procedure: (§1) General. […] EDTA was added to reactions to a concentration that removed the catalytic activity. MgCl2 or other metal salts were then added back to the reactions at the optimum level. Antibody concentration was adjusted for each system to obtain useable data in a reasonable reaction time and varied from 0.5-4 μM.
(§2) Kinetic analyses were done by standard methods as described. Rates were defined as initial velocities and reported in min^-1 or sec^-1. Each assay was done in duplicate or triplicate to allow for error analysis. Background rates were measured using an identical reaction mixture without antibody present. Michales-Menten parameters kcat and Km were derived from Eadie-Hofstee or weighted Lineweaver-Burk plots (using the computer program Enzyme Kinetics 1.0, Macintosh, Trinity Software). Inhibitory constants, Ki, were derived from Dixon or Lineweaver-Burk plots.
Thin Layer Chromatography. Reactions were quenched and analyzed by spotting on a TLC plate. Two systems were used. PEI-cellulose coated plates were run in 1.5 M formic acid/0.5 M LiCl (Rf values: […], 0.3; Pi, 0.8). (In some cases it was useful to pre-run the TLC plate in H2 O to reduce smearing). Silica coated plates were run in isopropanol:NH4OH:H2 O, (50:25:25) (Rf values: ATP, 0.36; ADP, 0.55; AMP, 0.7; and Adenosine, 0.95). Assays involving the visualization of pyrophosphate used two TLC systems simultaneously: the silica system described (Rf values: PPi,O; Pi, 0.3), and a PEI-cellulose system run in 0.3 M sodium phosphate, pH=7.0 (Rf values: ATP, 0.2; ADP, 0.4; AMP, 0.6; PPi, 0.15; and Pi, 0.65). Radioactivity was quantitated using a Molecular Dynamics Phosphorlmager.
Kinetic Assays Using ^14 C-Labeled Compounds. Assays were performed with [8-^14 C]ATP, [8-^14 C]ADP, and [^14 C(U)]AMP. […] Immediately before each reaction, the solution was evaporated to dryness in vacuo and the compound resuspended in an equal volume of water. […] Reactions were quenched and analyzed by the silica TLC system.

[2] = target: monoclonal antibody 6A1A6 (metal dependent catalytic antibody, IgG); assay: Spectrophotometric (405 nm) hydrolysis of p-nitrophenyl ester substrates by antibody 6A1A6; settings: for Ki: pH 9.0, 10 mM MgCl2
Procedure: as §1, with “General. Because antibody 6A1A6, see Table 2, was metal dependent, a few precautions were taken to insure consistent results for all assays.” for “General.”
as §2
p-Nitrophenyl Esters as Substrates. A useful system to assess cleavage utilized substrates containing esters with p-nitrophenol leaving groups. This assay was fast, reproducible and much more trouble free than the fluorescence assays. It relied on the fact that the anion cleavage product, p-nitrophenolate, is yellow at basic pH and its appearance can be followed spectrophotometrically at 405 nm.
Antibody 6A1A6 was assayed spectrophotometrically for its ability to cleave the above mentioned substrates containing the p-nitrophenyl leaving group at 405 nm using a Molecular Devices Vmax® kinetic microplate reader. Kinetic assays were performed in triplicate at 25° C. in 40 mM TAPS, 150 mM NaCl, 10 mM MgCl2, 0.5-0.6 μM antibody, pH=9.0.
Phosphodiester Substrate. […] This represents the first report of a catalytic antibody capable of hydrolyzing a phosphodiester bond. pNPPT is normally used as a substrate for snake venom phosphodiesterase. […] The uncatalyzed rate under these conditions was 1.35×10^-6 min^-1. […] The Ki is defined as the negative x-coordinate of the intersection point of the lines in a Dixon plot.
Phosphomonoester Substrate. Under reaction condition identical to those used for pNPPT, the antibody also catalyzes the hydrolysis of p-nitrophenyl phosphate (pNPP). […] The uncatalyzed rate was 3.4×10^-6 min^-1.

[3] = target: monoclonal antibody 6A1A6 (metal dependent catalytic antibody, IgG); assay: Hydrolysis of oligomer T15 (DNase activity) by antibody 6A1A6, inhibition by hapten; settings: substrate oligomer T15; pH 9, 1 mM Mg2+; read-out: Ki (competitive inhibition of DNase activity)
Procedure: as §2
It was unknown what type of specificity antibody 6A1A6 would have for a DNA polymer. Several possible activities were monitored under conditions of pH 9 and 1 mM Mg^2+ that were optimal for ATP hydrolysis.
Kinetic Parameters. Kinetic experiments were performed with T15 as a substrate. Due to the very slow rate of hydrolysis, experiments were done under single turnover conditions with enzyme excess.
Control Experiments. Standard controls were performed using oligomer T15 as a substrate. Immunoprecipitation reduced activity by 93%. The remaining activity could be due to incomplete immunoprecipitation, but could also be due to a contaminating nuclease. […] Fab fragments retained 46±17% of the original activity.

[4] = substrate pNPP, read-out: Ki (competitive inhibition of pNPP hydrolysis)

Question: With `Nc1ncnc2c1ncn2[C@@H]1O[C@H](COP(=O)(O)OP(=O)(O)O)[C@@H](O)[C@H]1O` [ADP, adenosine diphosphate] as the molecule, how does the Km [1] read?
Answer: 70 ± 8 µM

Question: What about the Vmax [1] of the same molecule?
Answer: 120 ± 20 s⁻¹

Question: With `Nc1ncnc2c1ncn2[C@@H]1O[C@H](COP(=O)(O)O)[C@@H](O)[C@H]1O` [AMP] as the molecule, how does the Km [1] read?
Answer: 161 ± 21 µM

Question: And the Vmax [1]?
Answer: 102 ± 3 s⁻¹

Question: For `Nc1ncnc2c1ncn2[C@@H]1O[C@H](COP(=O)(O)OP(=O)(O)OP(=O)(O)O)[C@@H](O)[C@H]1O` [ATP, Adenosine triphosphate], which Km [1] is on record?
Answer: 1400 ± 123 µM

Question: What does the source list for `O=[N+]([O-])c1ccc(O)cc1` [p-nitrophenol]?
Answer: Ki [2, 4]: 9.31 ± 1.94 µM; Ki ([2]; substrate pNPPT, product inhibition, read-out: Ki for p-nitrophenol (Dixon plot)): 10.1 ± 2.1 µM

Question: With `Cc1cn([C@H]2C[C@H](O)[C@@H](COP(=O)(O)Oc3ccc([N+](=O)[O-])cc3)O2)c(=O)[nH]c1=O` [pNPPT, thymidine-5'-monophosphate-p-nitrophenyl ester] as the molecule, how does the “kcat (apparent), pNPPT as substrate” value ([2]; 10 mM MgCl2, 40 mM TAPS, 150 mM NaCl, pH 9.0, 25° C.) read?
Answer: 0.031±0.05 min^-1

Question: What about the Km ([2]; 10 mM MgCl2, 40 mM TAPS, 150 mM NaCl, pH 9.0, 25° C., read-out: Km (apparent), pNPPT as substrate) of the same molecule?
Answer: 290 ± 80 µM

Question: “thymidine 3'-O-(7-hydroxy-4-methyl coumarin) phosphorodithioate [hapten]” was tested. Which Ki [3] did it give?
Answer: 758 ± 57 µM

Question: What about the Ki [2, 4] of the same molecule?
Answer: 199 ± 54 µM

Question: And the Ki ([1]; substrate ATP, read-out: Ki (competitive inhibitor of ATP hydrolysis))?
Answer: 559 µM
